7 molecules from ChEMBL document CHEMBL5244223, “l,8-Naphthalimide based DNA intercalators and anticancer agents. A systematic review from 2007 to 2017” (Eur J Med Chem, 2018) can be followed below.

≈ marks a conversion by molar mass, not a printed value.

One test concerns Clupea harengus. The experiment in a line: Binding affinity to herring DNA assessed as binding constant incubated for 30 mins by fluorescence based EtBr-UV absorption spectral analysis.
In test [1] the test system is SMMC-7721. The experiment in a line: Cytotoxicity against human SMMC-7721 cells assessed as inhibition of cell growth incubated for 48 hrs by MTT assay. It is filed as functional, cell-based. Particulars: SMMC-7721, 48 h. (In general: Tetrazolium assays rely on reduction of a dye to a coloured formazan, in cell work by metabolically active cells.)
Test [2] has as its system K562. In words: Cytotoxicity against human K562 cells assessed as inhibition of cell growth incubated for 48 hrs by MTT assay. It is filed as functional, cell-based. Particulars: K562, 48 h.
The test system of test [3] is HCT-116. In words: Cytotoxicity against human HCT-116 cells assessed as inhibition of cell growth incubated for 48 hrs by MTT assay. Type of test: functional, cell-based. Particulars: HCT-116, 48 h.
Test [4] has as its system MDA-MB-231. The experiment in a line: Antiproliferative activity against human MDA-MB-231 cells assessed as inhibition of cell proliferation incubated for 48 hrs by MTT assay. Type of test: functional, cell-based. Conditions: MDA-MB-231, 48 h.
In test [5] the test system is K562. In words: Antiproliferative activity against human K562 cells assessed as inhibition of cell proliferation incubated for 48 hrs by MTT assay. Conditions: K562, 48 h. It is filed as functional, cell-based.
The test system of test [6] is HCT-116. In words: Antiproliferative activity against human HCT-116 cells assessed as inhibition of cell proliferation incubated for 48 hrs by MTT assay. It is filed as functional, cell-based. Conditions: HCT-116, 48 h.
The test system of test [7] is HepG2. The experiment in a line: Antiproliferative activity against human HepG2 cells assessed as inhibition of cell proliferation incubated for 48 hrs by MTT assay. Type of test: functional, cell-based. Conditions: HepG2, 48 h.
A further test concerns Mus musculus. The experiment in a line: Antitumor activity against mouse H22 cells xenografted in Kunming mouse assessed as decrease in tumor growth at 1 mg/kg administered as single injection via caudal vein for 7 consecutive days. It is filed as functional. Further details: scale not given: the % may be the effect or the level left.
Test [8] is filed under the species Homo sapiens. The experiment in a line: Binding affinity to double stranded [poly(dA-dT)2] DNA (unknown origin) assessed as equilibrium binding constant by steady-state fluorescence spectroscopic analysis.
A further test addresses Salmon testes DNA. In words: Binding affinity to salmon Testis DNA assessed as equilibrium binding constant by steady-state fluorescence spectroscopic analysis. Particulars: Salmo salar.
Test [9] is filed under the species Homo sapiens. In words: Binding affinity to double stranded [poly(dG-dC)2] DNA (unknown origin) assessed as equilibrium binding constant by steady-state fluorescence spectroscopic analysis.
A further test concerns A549. In words: Cytotoxicity against human A549 cells assessed as cell growth inhibition by MTT assay. Type of test: functional, cell-based.
A further test has as its system HL-60. In words: Cytotoxicity against human HL-60 cells assessed as cell growth inhibition by MTT assay. It is filed as functional, cell-based.
The test system of test [10] is MCF7. In words: Cytotoxicity against human MCF7 cells assessed as cell growth inhibition by MTT assay. Type of test: functional, cell-based.
The test system of the next test is HCT-8. The experiment in a line: Cytotoxicity against human HCT-8 cells assessed as cell growth inhibition by MTT assay. Type of test: functional, cell-based.
The subject of the next test is HeLa. In words: Cytotoxicity against human HeLa cells assessed as cell growth inhibition by MTT assay. It is filed as functional, cell-based.
The subject of the next test is P388. In words: Cytotoxicity against mouse P388 cells assessed as cell growth inhibition by MTT assay. It is filed as functional, cell-based.
Another test deals with A-375. In words: Cytotoxicity against human A-375 cells assessed as cell growth inhibition by MTT assay. It is filed as functional, cell-based.
A further test relates to Calf thymus DNA. In words: Binding affinity to calf thymus DNA assessed as DNA intercalation by measuring change in melting temperature by thermal denaturation assay. Type of test: nucleic-acid assay. Conditions: Bos taurus.
Another test has as its system COLO 205. The experiment in a line: Cytotoxicity against human COLO 205 cells assessed as inhibition of cell growth incubated for 72 hrs by SRB assay. Type of test: functional, cell-based. Conditions: COLO 205, 72 h, pooled result: one value given for 7 cell lines, strains, targets or settings. For orientation: In SRB staining, fixed cells bind dye roughly in proportion to their protein.

Test [11] deals with Staphylococcus epidermidis. The experiment in a line: Antibacterial activity against Staphylococcus epidermidis MTCC 435 assessed as inhibition of bacterial growth by agar well diffusion assay. It is filed as functional.
In the next test the test system is Pseudomonas aeruginosa. The experiment in a line: Antibacterial activity against Pseudomonas aeruginosa MTCC 741 assessed as inhibition of bacterial growth by agar well diffusion assay. It is filed as functional.
A further test relates to Escherichia coli. In words: Antibacterial activity against Escherichia coli MTCC 443 assessed as inhibition of bacterial growth by agar well diffusion assay. Type of test: functional. A general note: A growth-free zone around the sample is the usual read-out of agar diffusion tests.
Another test has as its system Staphylococcus aureus. In words: Antibacterial activity against Staphylococcus aureus MTCC 96 assessed as inhibition of bacterial growth by agar well diffusion assay. Type of test: functional.
The next test relates to Bel-7402. In words: Antiproliferative activity against human Bel-7402 cells assessed as inhibition of cell growth incubated for 48 hrs by MTT assay. Conditions: Bel-7402, 48 h. Type of test: functional, cell-based.
The subject of a further test is H22. In words: Antiproliferative activity against mouse H22 cells assessed as inhibition of cell growth incubated for 48 hrs by MTT assay. It is filed as functional, cell-based. Conditions: H22, 48 h.
The subject of test [12] is SMMC-7721. In words: Antiproliferative activity against human SMMC-7721 cells assessed as inhibition of cell growth incubated for 48 hrs by MTT assay. It is filed as functional, cell-based. Particulars: SMMC-7721, 48 h.
The test system of test [13] is HepG2. In words: Antiproliferative activity against human HepG2 cells assessed as inhibition of cell growth incubated for 48 hrs by MTT assay. It is filed as functional, cell-based. Conditions: HepG2, 48 h.
In the next test the test system is T47D. The experiment in a line: Cytotoxicity against human T47D cells assessed as cell growth inhibition incubated for 48 hrs by sulforhodamine B reagent assay. It is filed as functional, cell-based.
Another test deals with KM12. The experiment in a line: Cytotoxicity against human KM12 cells assessed as cell growth inhibition incubated for 48 hrs by sulforhodamine B reagent assay. Conditions: KM12, 48 h. It is filed as functional, cell-based.
The subject of a further test is SK-MEL-28. The experiment in a line: Cytotoxicity against human SK-MEL-28 cells assessed as cell growth inhibition incubated for 48 hrs by sulforhodamine B reagent assay. It is filed as functional, cell-based. Conditions: SK-MEL-28, 48 h.
The subject of another test is DU-145. In words: Cytotoxicity against human DU-145 cells assessed as cell growth inhibition incubated for 48 hrs by sulforhodamine B reagent assay. It is filed as functional, cell-based. Particulars: DU-145, 48 h.
In a further test the test system is U-251. The experiment in a line: Cytotoxicity against human U-251 cells assessed as cell growth inhibition incubated for 48 hrs by sulforhodamine B reagent assay. It is filed as functional, cell-based. Conditions: U-251, 48 h.
The subject of test [14] is HCT-116. The experiment in a line: Cytotoxicity against human HCT-116 cells assessed as cell growth inhibition incubated for 48 hrs by sulforhodamine B reagent assay. It is filed as functional, cell-based. Particulars: HCT-116, 48 h.
For test [15], the system named is MDA-MB-231. In words: Cytotoxicity against human MDA-MB-231 cells assessed as cell growth inhibition incubated for 48 hrs by sulforhodamine B reagent assay. It is filed as functional, cell-based. Conditions: MDA-MB-231, 48 h.
For another test, the system named is SW-620. In words: Cytotoxicity against human SW620 cells assessed as cell growth inhibition incubated for 48 hrs by sulforhodamine B reagent assay. Conditions: SW-620, 48 h. It is filed as functional, cell-based.
The test system of another test is 786-0. In words: Cytotoxicity against human 786-0 cells assessed as cell growth inhibition incubated for 48 hrs by sulforhodamine B reagent assay. Conditions: 786-0, 48 h. Type of test: functional, cell-based.
Another test deals with RXF 393. The experiment in a line: Cytotoxicity against human RXF 393 cells assessed as cell growth inhibition incubated for 48 hrs by sulforhodamine B reagent assay. It is filed as functional, cell-based. Conditions: RXF 393, 48 h.
The test system of the next test is Hs-578T. In words: Cytotoxicity against human Hs-578T cells assessed as cell growth inhibition incubated for 48 hrs by sulforhodamine B reagent assay. Type of test: functional, cell-based.
For a further test, the system named is Malme-3M. The experiment in a line: Cytotoxicity against human Malme-3M cells assessed as cell growth inhibition incubated for 48 hrs by sulforhodamine B reagent assay. It is filed as functional, cell-based.
The next test deals with NCI-H322M. In words: Cytotoxicity against human NCI-H322M cells assessed as cell growth inhibition incubated for 48 hrs by sulforhodamine B reagent assay. Type of test: functional, cell-based.
In another test the test system is OVCAR-4. In words: Cytotoxicity against human OVCAR-4 cells assessed as cell growth inhibition incubated for 48 hrs by sulforhodamine B reagent assay. It is filed as functional, cell-based. Conditions: OVCAR-4, 48 h.
Another test concerns EKVX. The experiment in a line: Cytotoxicity against human EKVX cells assessed as cell growth inhibition incubated for 48 hrs by sulforhodamine B reagent assay. It is filed as functional, cell-based.
The test system of a further test is SF-539. The experiment in a line: Cytotoxicity against human SF-539 cells assessed as cell growth inhibition incubated for 48 hrs by sulforhodamine B reagent assay. Type of test: functional, cell-based. Conditions: SF-539, 48 h.
The next test deals with SK-MEL-5. The experiment in a line: Cytotoxicity against human SK-MEL-5 cells assessed as cell growth inhibition incubated for 48 hrs by sulforhodamine B reagent assay. It is filed as functional, cell-based. Conditions: SK-MEL-5, 48 h.
The test system of another test is SNB-75. In words: Cytotoxicity against human SNB-75 cells assessed as cell growth inhibition incubated for 48 hrs by sulforhodamine B reagent assay. It is filed as functional, cell-based. Particulars: SNB-75, 48 h.
The subject of test [16] is K562. The experiment in a line: Cytotoxicity against human K562 cells assessed as cell growth inhibition incubated for 48 hrs by sulforhodamine B reagent assay. It is filed as functional, cell-based. Conditions: K562, 48 h.
In another test the test system is BT-549. The experiment in a line: Cytotoxicity against human BT-549 cells assessed as cell growth inhibition incubated for 48 hrs by sulforhodamine B reagent assay. Type of test: functional, cell-based. Particulars: BT-549, 48 h.
The test system of test [17] is MCF7. In words: Cytotoxicity against human MCF7 cells assessed as cell growth inhibition incubated for 48 hrs by sulforhodamine B reagent assay. It is filed as functional, cell-based. Conditions: MCF7, 48 h.

For the molecule `NCCCCNCCCN1C(=O)c2cccc3cccc(c23)C1=O`, in the test on Clupea harengus, the Kb is 6.06 10^3/M. In addition, the IC50 in the test on SMMC-7721 [1], with K562 [2] and with HCT-116 [3] was 5.45 µM throughout.

In the case of `Cl.Cl.Cl.Cl.NCCCNCCCCNCCCNCC(=O)NCCCN1C(=O)c2cccc3cccc(c23)C1=O`, the concentration for half-maximal inhibition (IC50) in the test with MDA-MB-231 [4], with K562 [5], with HCT-116 [6] and with HepG2 [7] was 2860 nM in each case. In addition, the Activity in the test with Mus musculus is listed as 70.92%.

Take `C[n+]1ccc(CCN2C(=O)c3cccc4c(N)ccc(c34)C2=O)cc1`: the Kb is 5.15 10^5/M in the test listed under Homo sapiens [8], 1.38 10^5/M at Salmon testes DNA and 0.82 10^5/M in the test listed under Homo sapiens [9].

As to `COc1ccc2c(CC(=O)NCCN3C(=O)c4cccc5c(N(C)C)ccc(c45)C3=O)c(C)n(C(=O)c3ccc(Cl)cc3)c2c1`, the IC50 with A549, in the test on HL-60, in the test with MCF7 [10], in the test on HCT-8, in the test with HeLa and in the test on P388 was 13.9 µM in each case. The IC50 – broadly, the concentration that gives 50% inhibition – in the test on A-375 was found to be 13.9 µM.

On to `O=C1c2cccc3cccc(c23)C(=O)N1c1nc(-c2cc3cc(Cl)cc(Cl)c3oc2=O)cs1`, for which the shift in melting temperature (ΔTm) (as a rule, the change in melting temperature against a reference sample) in the test on Calf thymus DNA was 3.8 °C. The IC50 in the test with COLO 205 was 190 nM. The MIC (in [11]; in the test on Pseudomonas aeruginosa; with Escherichia coli; with Staphylococcus aureus) was 18.8 µg/mL (≈ 38 µM) throughout.

With `O=C1c2cccc3cc([N+](=O)[O-])cc(c23)C(=O)N1CCCCN(CCCl)CCCl`, the half-maximal inhibitory concentration (IC50) in the test with Bel-7402, in the test on H22, in the test on SMMC-7721 [12] and in the test with HepG2 [13] was 1900 nM in each case.

Turning to `O=C1c2cccc3cccc(c23)C(=O)N1CCCCOc1ccc(-c2nc3ccc(N4CCOCC4)cc3[nH]2)cc1`, the half-maximal inhibitory concentration (IC50) in the test on T47D, with KM12, in the test on SK-MEL-28, in the test on DU-145, in the test on U-251 and in the test on HCT-116 [14] was 110 nM each time. Moreover, the IC50 in the test on MDA-MB-231 [15], with SW-620, in the test on 786-0, in the test on RXF 393, in the test with Hs-578T and in the test with Malme-3M was 110 nM in each case. Besides, the IC50 in the test on NCI-H322M, in the test on OVCAR-4, with EKVX, with SF-539, with SK-MEL-5 and with SNB-75 was 110 nM in each case. In addition, the IC50 in the test on K562 [16], in the test on BT-549 and in the test on MCF7 [17] was 110 nM in each case.
